Data on two compounds can be found in publication PMC7447632, “Highly functionalized β-lactams and 2-ketopiperazines as TRPM8 antagonists with antiallodynic activity” (Scientific Reports, 2020).

Common to all, as to format: cell-based
One assay addresses T1, hTRPV1 channels (Homo sapiens, UniProt Q8NER1).
T1 construct: expressed in transfected cells; host or cells: HEK (stably transfected)
Nature of the assay: Ca2+ microfluorometry in HEK cells expressing hTRPV1 (capsaicin). The note with it: 1 µM capsaicin; for TRPV1 Blockade (%) 5 µM: 5 µM compound; for TRPV1 Blockade (%) 50 µM: 50 µM compound. The method, then: β-Lactam and 2-ketopiperazine derivatives were also assayed for their activity in cell expressing hTRPV1 channels. No significant antagonist activity was measured for any derivatives within both chemotypes (Supplementary Tables S1, S2, and Fig. S3), indicating their selectivity for TRPM8 channels.
Human embryonic kidney cell line (HEK) stably transfected with rTRPM8 or h-TRPV1 were used as previously described. Briefly, cells were seeded in 96-well plates at a cell density of 30,000 cells 2 days before treatment. Buffer used was HBBS (in mM): 138 NaCl, 5.33 KCl, 1.26 CaCl2, 0.5 MgCl-6H2O, 0.4 MgSO4-7H2O, 4 NaHCO3 0.44 KH2PO4, 0.3 Na2HPO4, pH 7.4. The day of treatment the medium was replaced with 100 µL of the dye loading solution Fluo-4 NW supplemented with probenecid 2.5 mM. After incubation, plates were transferred to a fluorescence plate reader (Polastar BMG). In the experimental protocol, the baseline fluorescence was recorded ([…]) for 3 cycles. After, vehicle, compound at different concentrations and the corresponding antagonist, 10 µM AMTB for TRPM8 or 10 µM Ruthenium Red for TRPV1 were added to the well. Fluorescence intensity was recorded during 7 cycles more. Finally, the agonist 100 µM menthol for TRPM8 or 1 µM capsaicin for TRPV1 was added and fluorescence intensity was recorded during 10 cycles more.
Table S1. Activity at hTRPV1 of β–lactams derived from phenylalaninol conjugates
Compd. Isomer Isomer TRPV1 Blockade (%)
Table S2. Activity at hTRPV1 of 2-ketopiperazines derived from phenylalaninol

Assay [1] concerns HT29 (colorectal adenocarcinoma). Put plainly: SRB cytotoxicity assay, HT29. The note with it: 72 h, SRB; for TGI HT29: total growth inhibition; for TGI HT29 / CC50: unit inferred; for GI50 / CC50: Homo sapiens, HT-29; for CC50: read-out: LC50 HT29. On the procedure: (§1) Human tumor cell lines used in this study were purchased from the ATCC. A-549 (CCL-185), lung carcinoma; HT-29 (HTB-38), colorectal adenocarcinoma; MDA-MB-231 (HTB-26), breast adenocarcinoma; PSN1, pancreas adenocarcinoma.
(§2) All cell lines were maintained in DMEM (Dulbecco’s Modified Eagle's Medium) culture medium supplemented with 10% FBS (Fetal Bovine Serum), 100 Units/mL penicillin/streptomycin at 37 °C, 5% CO2 and 95% humidity.
(§3) Triplicate cultures were incubated for 72 h in the presence or absence of test compounds in dose–response curves (10 concentrations, typically ranging from 10 to 0.0026 µg/mL). A colorimetric assay using sulforhodamine B (SRB) was adapted for quantitative measurement of cell growth and cytotoxicity. A more detailed information on this assay is provides in the supplementary information. GI50 is the compound concentration that produces 50% inhibition on cell growth as compared to control cells.
(§4) In vitro bioassays for the detection of antitumor activity
(§5) The aim of this assay is to evaluate the in vitro cytostatic (ability to delay or arrest tumor cell growth) or cytotoxic (ability to kill tumor cells) activity of the samples […]
(§6) Name Nº ATCC Species Tissue Characteristics
(§7) A549 CCL-185 human lung lung carcinoma (NSCLC)
(§8) HT29 HTB-38 human colon colorectal adenocarcinoma
(§9) MDA-MB-231 HTB-26 human breast breast adenocarcinoma
(§10) PSN1 CRM-CRL-3211 human pancreas pancreas adenocarcinoma […]
(§11) A colorimetric assay, using Sulforhodamine B (SRB) reaction has been adapted to provide a quantitative measurement of cell growth and viability (following the technique described by Skehan et al. J. Natl. Cancer Inst. 1990, 82, 1107-1112 […]
(§12) This form of assay employs 96-well cell culture microplates following the standards of the American National Standards Institute and the Society for Laboratory […]
(§13) used in this study were obtained from the American Type Culture Collection (ATCC) and derive from different types of human cancer.
(§14) A549, HT29, MDA-MB-231 and PSN1 cells were maintained in Dulbecco’s
(§15) Modified Eagle Medium (DMEM) supplemented with 10% Fetal Bovine Serum (FBS), 2mM L-glutamine, 100 U/mL penicillin, and 100 U/mL streptomycin at 37 °C, 5% CO2 and 98% humidity. For the experiments, cells were harvested from subconfluent cultures using trypsinization and resuspended in fresh medium before counting and […]
(§16) A549, HT29, MDA-MB-231 and PSN1 cells were seeded in 96 well microtiter plates, at 5000 cells per well in aliquots of 150 µL, and allowed to attach to the plate surface for 18 hours (overnight) in drug free medium. After that, one control (untreated) plate of each cell line was fixed (as described below) and used for time zero reference value. Culture plates were then treated with test compounds (50 µL aliquots of 4X stock […]
(§17) solutions in complete culture medium plus 4% DMSO) using ten 2/5 serial dilutions (concentrations ranging from 10 to 0.003 µg/mL) and triplicate cultures (1% final concentration in DMSO). After 72 hours treatment, the antitumor effect was measured by using the SRB methodology: Briefly, cells were washed twice with PBS, fixed for 15 min in 1% glutaraldehyde solution at room temperature, rinsed twice in PBS, and stained in 0.4% SRB solution for 30 min at room temperature. Cells were then rinsed several times with 1% acetic acid solution and air-dried at room temperature. SRB was then extracted in 10 mM trizma base solution and the absorbance measured in an automated spectrophotometric plate reader at 490 nm.
(§18) Effects on cell growth and survival were estimated by applying the NCI algorithm (Boyd MR and Paull KD. Drug Dev. Res. 1995, 34, 91-109, DOI:10.1002/ddr.430340203). The values obtained in triplicate cultures were fitted by nonlinear regression to a four-parameters logistic curve by nonlinear regression analysis. . Using the absorbance measurements [time zero, (Tz), control growth, (C), and test growth in the presence of drug at the ten concentration levels (Ti)], the […]
A general note: The SRB assay estimates cell density from bound dye.

For assay [2], the system named is MDA-MB-231 (breast adenocarcinoma). Put plainly: SRB cytotoxicity assay, MDA-MB-231. The note with it: 72 h, SRB; for TGI MDA-MB-231: total growth inhibition; for TGI MDA-MB-231 / CC50: unit inferred; for GI50 / CC50: Homo sapiens, MDA-MB-231; for CC50: read-out: LC50 MDA-MB-231. On the procedure:
as §1, §2, §3, §4, §5, §6, §7, §8, §9, §10, §11, §12, §13, §14, §15, §16, §17, §18

The test system of assay [3] is PSN1 (pancreas adenocarcinoma). Nature of the assay: SRB cytotoxicity assay, PSN1. The note with it: 72 h, SRB; for TGI PSN1: total growth inhibition; for TGI PSN1 / CC50: unit inferred; for GI50 / CC50: Homo sapiens, PSN1; for CC50: read-out: LC50 PSN1. On the procedure: as §1, §2, §3, §4, §5, §6, §7, §8, §9, §10, §11, §12, §13, §14, §15, §16, §17, §18

SMILES strings stand for the structures.

T1 sequence (Q8NER1 whole entry): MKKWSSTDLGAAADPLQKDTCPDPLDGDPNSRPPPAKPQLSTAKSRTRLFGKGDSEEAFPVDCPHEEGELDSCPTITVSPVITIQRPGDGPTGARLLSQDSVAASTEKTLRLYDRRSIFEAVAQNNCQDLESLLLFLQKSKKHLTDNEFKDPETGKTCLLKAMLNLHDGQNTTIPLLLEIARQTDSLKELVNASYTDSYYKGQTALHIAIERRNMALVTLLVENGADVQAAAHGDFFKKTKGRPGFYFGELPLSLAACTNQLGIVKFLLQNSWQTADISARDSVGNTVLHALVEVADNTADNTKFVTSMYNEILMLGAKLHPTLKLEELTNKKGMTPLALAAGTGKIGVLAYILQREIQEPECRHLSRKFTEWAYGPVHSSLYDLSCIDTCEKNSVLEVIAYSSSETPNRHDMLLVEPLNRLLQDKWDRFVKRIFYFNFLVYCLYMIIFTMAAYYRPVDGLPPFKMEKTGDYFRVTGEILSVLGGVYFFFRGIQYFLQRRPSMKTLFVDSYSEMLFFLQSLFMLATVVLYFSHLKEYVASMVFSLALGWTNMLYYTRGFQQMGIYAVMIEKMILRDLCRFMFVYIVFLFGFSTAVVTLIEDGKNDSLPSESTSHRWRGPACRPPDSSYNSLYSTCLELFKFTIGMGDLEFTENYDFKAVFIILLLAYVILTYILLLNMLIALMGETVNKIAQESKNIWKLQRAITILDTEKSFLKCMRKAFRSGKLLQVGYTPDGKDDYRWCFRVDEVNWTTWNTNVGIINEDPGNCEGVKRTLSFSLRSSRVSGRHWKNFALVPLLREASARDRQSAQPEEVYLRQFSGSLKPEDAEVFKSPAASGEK

On to `C[C@@H]1C(=O)N(C[C@H](Cc2ccccc2)NC(=O)OCc2ccccc2)[C@]1(Cc1ccccc1)C(=O)OCc1ccccc1` [Compound 24a, 4S-Benzyl-4-benzyloxycarbonyl-3S-methyl-1-[(2′S-benzyloxycarbonylamino-3′-phenyl)prop-1′-yl]-2-oxoazetidine], for which, on hTRPV1 channels, the “TRPV1 Blockade (%) 5 µM” value was found to be 9.7±1.1% and the “TRPV1 Blockade (%) 50 µM” value is 11.8±3.2%. Also, in assay [1], the TGI HT29 was > 17.3 µM, the GI50 came to 4.16 µM and the CC50 is > 17.3 µM. For the same compound, in assay [2], the TGI MDA-MB-231 was > 17.3 µM, the GI50 is > 17.3 µM and the CC50 was > 17.3 µM. In assay [3], the TGI PSN1 is > 17.3 µM, growth was halved (GI50) at 5.55 µM and the CC50 is > 17.3 µM.
For `C[C@@H]1C(=O)N(C[C@@H](Cc2ccccc2)NC(=O)OCc2ccccc2)[C@]1(Cc1ccccc1)C(=O)OCc1ccccc1` [Compound 29a, 4S-Benzyl-4-benzyloxycarbonyl-3S-methyl-1-[(2′R-benzyloxycarbonylamino-3′-phenyl)prop-1′-yl]-2-oxoazetidine], on hTRPV1 channels, the “TRPV1 Blockade (%) 5 µM” value is 8.2±2.1% and the “TRPV1 Blockade (%) 50 µM” value is 16.2±4.7%. In addition, in assay [1], the TGI HT29 was > 17.3 µM, growth was halved (GI50) at 7.11 µM and the CC50 is > 17.3 µM. In addition, in assay [2], the TGI MDA-MB-231 is > 17.3 µM, the GI50 was found to be 12.7 µM and the CC50 is > 17.3 µM. For the same compound, in assay [3], the TGI PSN1 was > 17.3 µM, the GI50 came to 6.42 µM and the CC50 was > 17.3 µM.

As a reminder, the GI50 is the concentration giving 50% growth inhibition.
